{
  "source": "paper PMC5325331",
  "about": "“A steroid like phytochemical Antcin M is an anti-aging reagent that eliminates hyperglycemia-accelerated premature senescence in dermal fibroblasts by direct activation of Nrf2 and SIRT-1” (Oncotarget, 2016)",
  "tested_on": "C. elegans wild type Bristol N2",
  "assay": "Life span assay in C. elegans",
  "format": "in vivo, Caenorhabditis elegans",
  "method": "The wild type Bristol N2 strain was used in this study. C. elegans and Escherichia coli OP50 strain were obtained from the Caenorhabditis Genetic Center, University of Minnesota (Minneapolis-St. Paul, MN). Worms were maintained at 20°C on nematode growth medium (NGM). Hatched worms (L1-stage larvae) were transferred to fresh agar plates and cultured with E. coli OP50 as a food source until they reached the L4 larvae stage. Synchronization of worm cultures was achieved by hypochlorite treatment of gravid hermaphrodites. […] Control worms were treated with 0.1% DMSO. All worms were kept 20°C to develop adulthood. Surviving and dead animals were counted daily (starting from the first day of adulthood) until all worms had died. […] Worms suffering from internal hatch (a defect in egg-laying) and those that crawled off the NGM plate were not included in the life-span assay. During the reproductive period, adult worms were transferred to fresh NGM plates every and then every other day thereafter. Life span assay result was obtained from three independent assays.",
  "data": [
    {"smiles": "C=C(CCC(C)C1CCC2C3=C(C(=O)C(O)C21C)C1(C)CCC(O)C(C)C1CC3)C(C)C(=O)O", "note": "(centres unmarked) [ANM, antcin M]", "values": [
      {"measurement": "life span of C. elegans under normal condition", "setting": "ANM 10 μM or RES 438 μM alone, compared to the control", "result": "significantly (P < 0.026) prolonged the life span"},
      {"measurement": "life span of C. elegans under high glucose", "setting": "high glucose (50 mM) with ANM (100 μM as printed elsewhere in the source), vs high glucose alone", "result": "significant (P < 0.0001) increase of life span"}
    ]}
  ]
}
